According to BindingDB's records for doi:10.1021/acs.jmedchem.7b00441 (University of Bonn, 2017):

Experiments:
[1] = Inhibition of human GFP-fused ABCG2 expressed in MDCK2 cells assessed as potentiation of SN-38 induced cytotoxicity by measuring cell viability after 72 hrs by MTT assay
[2] = Inhibition of human GFP-fused ABCG2 expressed in MDCK2 cells assessed as potentiation of mitoxantrone induced cytotoxicity by measuring cell viability after 72 hrs by MTT assay

SMILES | EC50 [1] [nM] | EC50 [2] [nM]
Cc1cc(Nc2ccc(O)c([N+](=O)[O-])c2)nc(-c2ccccc2)n1 | 62 | 22
N#Cc1cccc(Nc2nc(-c3cccnc3)nc3ccccc23)c1 | 85 | 
O=[N+]([O-])c1ccc(Nc2nc(-c3cccnc3)nc3ccccc23)cc1 | 21 | 13
